# Measurements taken from a melting point compilation (Tetko et al.; mined from patent text by program, amines drawn as free bases though some values may be those of a salt).
row,SMILES,melting point [°C]
1,O=C(O)CCC(=NO)c1ccc(-c2ccc(F)cc2)cc1,152 to 153
2,CC(C)(C)n1[nH]c(Cc2ccncc2)c2c(=O)nc(-c3ccncc3)nc1-2,233 to 235
3,CN(C)CCc1c(CC(N)=O)c2ccccc2n1C,131 to 134
4,C1=Cc2ccccc2C2(CO2)c2ccccc21,90 to 91
5,CCOC(=O)C1CCc2ccc(NC(=O)OC(C)(C)C)c(C)c2O1 (stereo not drawn),123 to 124
6,CCCc1c(CSc2ncccc2OCC(=O)O)ccc(C(C)=O)c1O,157
7,O=C(O)CCCc1cc2cc(Cl)ccc2n1S(=O)(=O)c1ccccn1,192
8,Cc1ccc(Cl)c(N2C(=O)C(=NO)c3ccccc32)c1Cl,190 to 191
9,CCS(=O)(=O)N(C)C1CCCOc2ccccc21 (stereo not drawn),122 to 124
10,Cn1c(=O)c2nc(C(=O)O)cn2c2ccccc21,267 to 268
11,CCCCCCCCCNC(=O)CCC(=O)OO,85 to 91
12,O=C(Nc1ccc(N2CCNCC2)c(C(F)(F)F)c1)c1ccc(F)c(OCc2cnc3ccccc3c2)c1,76 to 78
13,Cc1cc(Nc2ccnc(Nc3ccc(S(=O)(=O)N(C)C4CCN(Cc5nccs5)CC4)cc3)n2)ccc1F,176 to 177
14,O=C1c2ccccc2S(=O)(=O)N1CS(=O)(=O)c1c(Cl)cccc1Cl,201 to 203
15,CCOc1ncc(Br)cc1C(=O)O,122 to 124
16,CCOCCOCCn1ccc2c3c(c(-c4ccccc4Cl)cc21)C(=O)NC3=O,173
17,COc1ccc(S(=O)(=O)N(CC(N)=O)c2ccc(Cl)cc2C(O)c2ccccc2C(F)(F)F)cc1OC (stereo not drawn),129
18,Cc1cccc2c1N(Cc1ccccn1)C(=O)C(NC(=O)Nc1cccc(-c3nnn[nH]3)c1)N=C2c1ccccc1F (stereo not drawn),174 to 182
19,N#CCCNC(=O)c1cccc(-c2cccc3nn(Cc4ccc(F)cc4)cc23)c1,133 to 134
20,O=C(O)c1cccc2ncc(C3CCCCC3)cc12,> 280
21,C=CC(C)(C)C(O)(COc1ccc(-c2ccccc2)cc1)Cn1cnnc1 (stereo not drawn),171 to 173

row,SMILES,melting point [°C]
1,CC(C)(C)C(Cl)=NNc1ccc([N+](=O)[O-])cc1,94.5 to 95.5
2,Cc1cc(Cc2ccc(NC(=O)NCCO)cc2)n(C)c1C(=O)c1ccc(Cl)cc1,210
3,CNS(=O)(=O)c1cc(-n2nc3ccc(Cl)cn3c2=O)c(F)cc1C#N,154 to 157
4,N#CCOC(=O)c1cc(SCc2ccccc2)c(Cc2ccccc2)c(S(N)(=O)=O)c1,190 to 192
5,O=Cc1ccc(OCCN2Cc3ccccc3C2=O)cc1,134 to 135
6,CCOC(=O)NC(=O)NC(=NC(=O)Nc1ccc(Cl)cc1)OC,140 to 142
7,CN(C)C(=O)c1cc2n(n1)-c1ccc(Cl)cc1C(c1ccccc1)=NC2,176 to 178
8,CC(C)NCC(O)COc1ccc2c(=O)cc(-c3cc(O)cc(O)c3)oc2c1 (stereo not drawn),130
9,O=C(O)c1ccc(C2OC23Cc2ccccc2C3=O)cc1 (stereo not drawn),220
10,COc1ccc(C(=O)O)c2cc(C3CCCC3)oc12,170 to 171
11,COCOc1ccc(C(=O)COc2cc(OCc3ccccc3)ccc2CO)c(OCc2ccccc2)c1,115 to 118
12,Cc1ccc(S(=O)(=O)N(C)c2ccc(Cl)cc2C(N)=S)cc1,180 to 182
13,CCC1Cc2c(O)cc(OC)cc2C(=O)O1 (stereo not drawn),167 to 168
14,O=C(c1ccccc1)c1ccc(-c2nc(COc3ccc(CCCn4ccnc4)cc3)co2)cc1,112 to 113
15,O=C(Nc1ccncn1)NN1CC=CCC1,188
16,Cn1c(CO)nc2c(N)cc(Br)cc21,216 to 218
17,Nc1ccc(N)c(I)c1,95 to 99
18,Cc1[nH]c(=O)ccc1-c1ccc(-n2ccnc2)cc1,310 to 314
19,COc1cccc(-c2ccc3ccc(NC(=O)c4cccc(Br)c4)nc3n2)c1,104
20,C=Cc1ccc2[nH]cc(S(=O)(=O)c3ccccc3)c2c1,140 to 145
21,COC(=O)c1cc(C(=O)NCC(N)=O)c2cc(Cc3ccc(F)cc3)cnc2c1O,247 to 248

row,SMILES,melting point [°C]
1,CCC(C)(Oc1ccc(F)cc1F)C(=O)Nc1nc(CC(=O)O)cs1 (stereo not drawn),148 to 149
2,CCOC(=O)c1cc(C#N)c(C)nc1Cl,43 to 45
3,CCc1c(Sc2ccccc2)[nH]c(=O)[nH]c1=O,218 to 219
4,COc1cc2nc(N3CCN(C#N)CC3)nc(N)c2cc1OC,215
5,CC(C)(C)C=CC1=C(O)C(=O)c2ccccc2C1=O,126 to 128
6,O=NN(CC(=O)O)C([PH](=O)Oc1ccccc1)[PH](=O)Oc1ccccc1 (stereo not drawn),40 to 44
7,CCn1nnc(C(CO)=C(c2ccc(F)cc2)c2ccc(F)cc2)n1,82 to 84
8,O=Cc1nn(-c2ccc(Br)cc2)c2c1CCCC2,120 to 121
9,C=CCNc1cccnc1S(N)(=O)=O,134 to 135
10,COc1ccc(Nc2nc3cccc(-c4ccc(CN5CCS(=O)(=O)CC5)cc4)n3n2)cc1,241
11,COc1cc(NC(=O)OC(C)(C)C)c(N)cc1-c1cc(F)ccc1F,144
12,CN(c1cccc2cc(C3=NCC(CC(N)=O)S3)[nH]c12)S(=O)(=O)c1cccnc1 (stereo not drawn),185 to 186
13,COc1cc(N)c(Cl)cc1C(=O)OCC1CCN(CCCOc2ccc(F)cc2)CC1,140
14,O=C(Oc1ccccc1)c1cc(Br)nn1-c1ncccc1Cl,65 to 67
15,O=C(CN1CCC(Cc2ccc(F)cc2)CC1)Nc1ccc2[nH]c(=S)[nH]c2c1,266 to 268
16,CC(C)C(NS(=O)(=O)c1ccc(-c2ccccc2)cc1)C(=O)O (stereo not drawn),164 to 166
17,CCc1nc(-c2ccccc2)c(NC(=O)Nc2ccccc2)s1,171 to 173
18,O=C(c1ccco1)c1cnn2c(-c3cccc(N4CCCCC4=O)c3)ccnc12,159 to 160
19,CC(C)CC(NC(=O)c1cc(F)ccc1SSc1ccc(F)cc1C(=O)NC(CC(C)C)C(=O)O)C(=O)O (stereo not drawn),246 to 247

# Second part, the molecule after the results:
row,melting point [°C],SMILES
1,58 to 59,CCCCCC(=O)C=Cc1ccc(CCCCCCCC(=O)O)o1
2,181 to 182,Cc1c[nH]c(=O)nc1OCc1ccccc1
3,98,O=C(Nc1ccc(F)cc1)c1cccc(Cl)n1
4,128 to 130,CC1(C)c2ccccc2C(C)(C)N1O
5,93,COC(=O)CCC#Cc1cc(Cl)ccc1NS(=O)(=O)c1ccc(-c2ccccc2)cc1
6,120 to 121,Nc1ccc(Cl)cc1C(O)c1ccccc1OCc1ccccc1 (stereo not drawn)
7,120 to 121,CCn1cc(-c2cnccn2)ccc1=O
8,172,O=C1C(O)=C([N+](=O)[O-])C(=O)c2ccc(Br)cc21
9,47 to 48,CCOC(=O)c1nn(-c2ccc(C)cc2)nc1C
10,166 to 168,CC(CC(O)(C(=O)Nc1ccc2c(c1)COC2=O)C(F)(F)F)c1ccccc1 (stereo not drawn)
11,83 to 84,Cc1nnc(-c2ccc3occ(-c4ccccc4Cl)c3c2)o1
12,174 to 177,Cc1ncc(CSC(=O)c2ccccc2)c(CO)c1O
13,128 to 130,CCOC(=O)c1cnc2c(SCN3CCSCC3)cccn2c1=O
14,169 to 171,CC(=O)NC(C)(C)c1ccc(C(C)N2CCN(c3ccccc3)CC2)cc1 (stereo not drawn)
15,111 to 114,CN(C)Cc1c[nH]c2c(C(=O)c3ccccc3)cccc12
16,189 to 190,CCCc1c(C(=O)NCc2ccc3cc(O)ccc3c2)cnn1-c1ccccc1
17,106 to 108,CCCc1c(OCCCCCCc2cc(OC)c(OC)c(C(C)C)c2)ccc(C(=O)O)c1O
18,136 to 138,N#Cc1c(N2CCCCC2)cc(-c2ccc3ccccc3c2)c2c1-c1ccccc1C2
19,111 to 113,CN1C(=O)Cc2cccc(Cl)c21
20,132 to 133,O=c1[nH]c(=O)c2ccccc2o1
21,181 to 183,COc1ccc(NC(=S)N2CCc3cc(S(=O)(=O)N4CC(c5ccccc5)NC4=O)ccc32)cc1 (stereo not drawn)

row,melting point [°C],SMILES
1,215 to 216,Oc1ccc2nscc2c1
2,138 to 140,CCOC(=O)N1CCN(CCNc2ncnc3c2sc2nc(N(C)C)c4c(c23)CC(C)(C)CC4)CC1
3,105 to 107,COC(=O)C(CSCc1ccc(OC)cc1)NC(=O)NCCCCC1CCSS1 (stereo not drawn)
4,130 to 132,CC(C)c1cccc(Nc2nc(Cl)nc(NCc3ccccn3)n2)c1
5,149 to 150,CC(C)(C)C(=O)Nc1ccc(Cl)cc1
6,258 to 259,CCCOc1ccccc1-c1nc2nc(N(C)C)nnc2c(=O)[nH]1
7,209 to 212,CC(=O)Nc1nc2c(Oc3cc(-c4ccc(C(F)(F)F)cc4OS(=O)(=O)C(F)(F)F)ncn3)cccc2s1
8,182,Cc1nc(-c2cccc(Cl)c2)c2cc(C(=O)c3ccc(Cl)cc3)ccc2n1
9,197 to 199,NC(=O)C1(/C=C2\CN3C(=O)CC3O2)C=CC=CC1 (stereo not drawn)
10,136 to 137,CC(C)(C)OC(=O)CCN1CCN(CC2CN(c3ccc(C(=N)NC(=O)c4ccccc4)cc3)C(=O)O2)CC1 (stereo not drawn)
11,101 to 102,COC(=O)c1ccc(OCCCc2ccccc2)cc1O
12,118 to 119,CCCCc1nc2c(N)nc3ccccc3c2n1OC(C)C
13,106 to 108,COc1ccc(NC(=O)c2ccccc2F)c(C(C)=O)c1OC
14,128 to 130,O=C1Cc2cccc3c2N1C(C(F)(F)F)=C(F)S3
15,217 to 218,NC(=O)c1ccc2c(c1)C(=C(Cl)Cl)OC(=C(Cl)Cl)O2
16,45 to 50,C=C(C)C(=O)OCCCCCCOc1ccc(/C=C/C(=O)OC)cc1
17,47 to 49,CN1CCN(Cc2cccc(OCc3ccc4ccccc4n3)c2)CC1
18,85 to 90,CC(Sc1ccc(OC(C)(C)C(=O)O)cc1)c1cccc2c1cnn2-c1ccc(C(F)(F)F)cc1 (racemic)
19,176 to 178,Cc1ccc(NC(=O)CN2CCNCC2)cc1Nc1ncc(-c2cccnc2)o1
20,241 to 242,FC(F)(F)c1nnc2nc(-c3ccccc3)c3cc(Cl)ccc3n12
21,107 to 110,COc1ccc2cc(CC(O)C(C)=O)ccc2c1 (stereo not drawn)
